Source: ChEMBL document CHEMBL1681699 (Bioorg Med Chem, 2011)

Tests used:
Blood [1] = assay: Biodistribution in Sprague-Dawley rat blood at 3.7 x 10^3 to 5.55 x 10'3 GBq, iv after 30 mins; type: ADME, organism-based; conditions: in vivo, 0.5 h
Blood [2] = assay: Biodistribution in Sprague-Dawley rat blood at 3.7 x 10^3 to 5.55 x 10^3 GBq, iv after 60 mins; type: ADME, organism-based; conditions: in vivo, 1 h
Lung [3] = assay: Biodistribution in Sprague-Dawley rat lung at 3.7 x 10^3 to 5.55 x 10^3 GBq, iv after 5 mins; type: ADME, organism-based; conditions: in vivo
Lung [4] = assay: Biodistribution in Sprague-Dawley rat lung at 3.7 x 10^3 to 5.55 x 10'3 GBq, iv after 30 mins; type: ADME, organism-based; conditions: in vivo, 0.5 h
Lung [5] = assay: Biodistribution in Sprague-Dawley rat lung at 3.7 x 10^3 to 5.55 x 10^3 GBq, iv after 60 mins; type: ADME, organism-based; conditions: in vivo, 1 h
Liver [6] = assay: Biodistribution in Sprague-Dawley rat liver at 3.7 x 10^3 to 5.55 x 10^3 GBq, iv after 5 mins; type: ADME, organism-based; conditions: in vivo
Liver [7] = assay: Biodistribution in Sprague-Dawley rat liver at 3.7 x 10^3 to 5.55 x 10'3 GBq, iv after 30 mins; type: ADME, organism-based; conditions: in vivo, 0.5 h
Liver [8] = assay: Biodistribution in Sprague-Dawley rat liver at 3.7 x 10^3 to 5.55 x 10^3 GBq, iv after 60 mins; type: ADME, organism-based; conditions: in vivo, 1 h
Muscle tissue [9] = assay: Biodistribution in Sprague-Dawley rat muscle at 3.7 x 10^3 to 5.55 x 10^3 GBq, iv after 5 mins; type: ADME, organism-based; conditions: in vivo
Muscle tissue [10] = assay: Biodistribution in Sprague-Dawley rat muscle at 3.7 x 10^3 to 5.55 x 10'3 GBq, iv after 30 mins; type: ADME, organism-based; conditions: in vivo, 0.5 h
Muscle tissue [11] = assay: Biodistribution in Sprague-Dawley rat muscle at 3.7 x 10^3 to 5.55 x 10^3 GBq, iv after 60 mins; type: ADME, organism-based; conditions: in vivo, 1 h
[12] = Biodistribution in Sprague-Dawley rat fat at 3.7 x 10^3 to 5.55 x 10^3 GBq, iv after 5 mins; type: ADME, organism-based, Adipose tissue; conditions: in vivo
[13] = Biodistribution in Sprague-Dawley rat fat at 3.7 x 10^3 to 5.55 x 10'3 GBq, iv after 30 mins; type: ADME, organism-based, Adipose tissue; conditions: in vivo, 0.5 h
[14] = Biodistribution in Sprague-Dawley rat fat at 3.7 x 10^3 to 5.55 x 10^3 GBq, iv after 60 mins; type: ADME, organism-based, Adipose tissue; conditions: in vivo, 1 h
Heart [15] = assay: Biodistribution in Sprague-Dawley rat heart at 3.7 x 10^3 to 5.55 x 10^3 GBq, iv after 5 mins; type: ADME, organism-based; conditions: in vivo
Heart [16] = assay: Biodistribution in Sprague-Dawley rat heart at 3.7 x 10^3 to 5.55 x 10'3 GBq, iv after 30 mins; type: ADME, organism-based; conditions: in vivo, 0.5 h
Heart [17] = assay: Biodistribution in Sprague-Dawley rat heart at 3.7 x 10^3 to 5.55 x 10^3 GBq, iv after 60 mins; type: ADME, organism-based; conditions: in vivo, 1 h
Kidney [18] = assay: Biodistribution in Sprague-Dawley rat kidney at 3.7 x 10^3 to 5.55 x 10^3 GBq, iv after 5 mins; type: ADME, organism-based; conditions: in vivo
Kidney [19] = assay: Biodistribution in Sprague-Dawley rat kidney at 3.7 x 10^3 to 5.55 x 10'3 GBq, iv after 30 mins; type: ADME, organism-based; conditions: in vivo, 0.5 h
Kidney [20] = assay: Biodistribution in Sprague-Dawley rat kidney at 3.7 x 10^3 to 5.55 x 10^3 GBq, iv after 60 mins; type: ADME, organism-based; conditions: in vivo, 1 h
Testes [21] = assay: Biodistribution in Sprague-Dawley rat testes at 3.7 x 10^3 to 5.55 x 10^3 GBq, iv after 5 mins; type: ADME, organism-based, Testis; conditions: in vivo
Testes [22] = assay: Biodistribution in Sprague-Dawley rat testes at 3.7 x 10^3 to 5.55 x 10'3 GBq, iv after 30 mins; type: ADME, organism-based, Testis; conditions: in vivo, 0.5 h
Testes [23] = assay: Biodistribution in Sprague-Dawley rat testes at 3.7 x 10^3 to 5.55 x 10^3 GBq, iv after 60 mins; type: ADME, organism-based, Testis; conditions: in vivo, 1 h
Brain [24] = assay: Biodistribution in Sprague-Dawley rat brain at 3.7 x 10^3 to 5.55 x 10^3 GBq, iv after 5 mins; type: ADME, organism-based; conditions: in vivo
Brain [25] = assay: Biodistribution in Sprague-Dawley rat brain at 3.7 x 10^3 to 5.55 x 10'3 GBq, iv after 30 mins; type: ADME, organism-based; conditions: in vivo, 0.5 h
Brain [26] = assay: Biodistribution in Sprague-Dawley rat brain at 3.7 x 10^3 to 5.55 x 10^3 GBq, iv after 60 mins; type: ADME, organism-based; conditions: in vivo, 1 h
Cortex [27] = assay: Biodistribution in Sprague-Dawley rat cortex at 3.7 x 10^3 to 5.55 x 10^3 GBq, iv after 5 mins; type: ADME, organism-based; conditions: in vivo
Cortex [28] = assay: Biodistribution in Sprague-Dawley rat cortex at 3.7 x 10^3 to 5.55 x 10'3 GBq, iv after 30 mins; type: ADME, organism-based; conditions: in vivo, 0.5 h
Cortex [29] = assay: Biodistribution in Sprague-Dawley rat cortex at 3.7 x 10^3 to 5.55 x 10^3 GBq, iv after 60 mins; type: ADME, organism-based; conditions: in vivo, 1 h
[30] = Biodistribution in Sprague-Dawley rat hippocampus at 3.7 x 10^3 to 5.55 x 10^3 GBq, iv after 5 mins; type: ADME, organism-based; conditions: in vivo

## [11CH3]n1cc(-c2ccncc2)c(-c2ccc(OCc3ccc4ccccc4n3)cc2)n1
Blood [1]
  Drug uptake: 0.065 % ID/g
Blood [2]
  Drug uptake: 0.047 % ID/g
Lung [3]
  Drug uptake: 0.317 % ID/g
Lung [4]
  Drug uptake: 0.155 % ID/g
Lung [5]
  Drug uptake: 0.09 % ID/g
Liver [6]
  Drug uptake: 2.766 % ID/g
Liver [7]
  Drug uptake: 3.395 % ID/g
Liver [8]
  Drug uptake: 3.364 % ID/g
Muscle tissue [9]
  Drug uptake: 0.093 % ID/g
Muscle tissue [10]
  Drug uptake: 0.059 % ID/g
Muscle tissue [11]
  Drug uptake: 0.039 % ID/g
[12]
  Drug uptake: 0.124 % ID/g
[13]
  Drug uptake: 0.075 % ID/g
[14]
  Drug uptake: 0.1 % ID/g
Heart [15]
  Drug uptake: 0.264 % ID/g
Heart [16]
  Drug uptake: 0.102 % ID/g
Heart [17]
  Drug uptake: 0.068 % ID/g
Kidney [18]
  Drug uptake: 1.229 % ID/g
Kidney [19]
  Drug uptake: 0.366 % ID/g
Kidney [20]
  Drug uptake: 0.314 % ID/g
Testes [21]
  Drug uptake: 0.16 % ID/g
Testes [22]
  Drug uptake: 0.098 % ID/g
Testes [23]
  Drug uptake: 0.068 % ID/g
Brain [24]
  Drug uptake: 0.162 % ID/g
Brain [25]
  Drug uptake: 0.066 % ID/g
Brain [26]
  Drug uptake: 0.056 % ID/g
Cortex [27]
  Drug uptake: 0.133 % ID/g
Cortex [28]
  Drug uptake: 0.044 % ID/g
Cortex [29]
  Drug uptake: 0.044 % ID/g
[30]
  Drug uptake: 0.169 % ID/g
